Measurements from patent US10739304B2, “Organic transistor-based system for electrophysiological monitoring of cells and method for the monitoring of the cells” (UNIVERSITA DEGLI STUDI DI CAGLIARI, priority 2015, dated 2020).

System: rat cardiomyocytes culture
Assay: Spontaneous electrical (beating) activity of rat cardiomyocyte culture recorded with the organic transistor (OCMFET) system, pharmacological modulation
Format: cell-based
Settings: 100 μM; for beating frequency modulation: spike-count on 4 min: rat cardiomyocytes culture (8 DIV) at 37° C., Verapamil added after Norepinephrine, statistics on 5 transistors, average and standard deviation, basal 129±4.6; for chemical tuning of the culture's spontaneous activity (drain current vs time): rat cardiomyocytes culture at 37° C., Norepinephrine first, then Verapamil
Source text: The system 100 was able to detect the occurrence of the signals (similarly to what MEA-based devices do), the beat rate and its rapid changing related to pharmacological modulations, obtained by applying both positive and negative chronotropic compounds (according to the method described in Simpson, P. Stimulation of hypertrophy of cultured neonatal rat heart cells through an alpha 1-adrenergic receptor and induction of beating through an alpha 1- and beta 1-adrenergic receptor interaction. Evidence for independent regulation of growth and beating. Circ. Res. 56, 884-894 (1985); Yonemochi, H., Saikawa, T., Takakura, T., Ito, S., Takaki, R. Effects of calcium antagonist on β-receptors of cultured cardiac myocytes isolated from neonatal rat ventricle. Circulation 81, 1401-1408 (1990)). In FIG. 13 an example of extracellular action potentials measured, with an organic transistor 10 is shown. Considering a p-type organic transistor and a first inverting stage of the readout electronics, the shape of the single signal shown in FIG. 13 is consistent with the expected current fluctuation caused by the ionic charge displacement in the early phase of the cardiac action potential. The drain current IDS fluctuation is driven by the fast movement of Na+ ions occurring at the very beginning of the intracellular action potential.
Systematic measurements by recording the spontaneous electrophysiological activity of rat cardiomyocytes (8 Days InVitro—DIV) by means of the system 100 (FIG. 14) have been performed.
All the measurements relative to the pharmacological modulation of the electrical activity were performed while maintaining the culture at constant temperature (37° C.) and the same reliable results were obtained in five recording devices simultaneously.

Row | Structure (SMILES) | beating frequency modulation: spike-count on 4 min | chemical tuning of the culture's spontaneous activity (drain current vs time)
1 | COc1ccc(CCN(C)CCCC(C#N)(c2ccc(OC)c(OC)c2)C(C)C)cc1OC (stereo not shown) [Verapamil] | 15±1.9 | suppressed
2 | NC[C@H](O)c1ccc(O)c(O)c1 [Norepinephrine] | 280±28.6 | accelerated
